ChEMBL document CHEMBL1201862, “PubChem BioAssay data set” (2004)
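Each compound was tested at five concentrations against cells in 96-well plates for 48 hours. The concentration for 50% growth inhibition is given as GI50.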 Calls of active or inactive are those of the source. Rule as the data show it: active = GI50 up to about 1.1 µM and inactive = higher.

What was measured:
Experiment in all cases: NCI-60 cell line screen, 48 h
EKVX = test system: EKVX
K562 = test system: K562
UACC-257 = test system: UACC-257
HCT-116 = test system: HCT-116
UO-31 = test system: UO-31
MDA-MB-435 = test system: MDA-MB-435
SK-MEL-28 = test system: SK-MEL-28
U-251 = test system: U-251
HOP-62 = test system: HOP-62
A498 = test system: A498
SK-MEL-2 = test system: SK-MEL-2
RXF 393 = test system: RXF 393
RPMI-8226 = test system: RPMI-8226
PC-3 = test system: PC-3
MDA-MB-231 = test system: MDA-MB-231
OVCAR-8 = test system: OVCAR-8
OVCAR-3 = test system: OVCAR-3
BT-549 = test system: BT-549
ACHN = test system: ACHN
Malme-3M = test system: Malme-3M

Measured: GI50

O=S(=O)(c1ccc2ccccc2c1)N1CCN(S(=O)(=O)c2ccc3ccccc3c2)CC1
inactive: EKVX > 100 µM | K562 > 100 µM | UACC-257 > 100 µM | HCT-116 > 100 µM | UO-31 > 100 µM | MDA-MB-435 > 100 µM | SK-MEL-28 > 100 µM | U-251 > 100 µM | HOP-62 33.5 µM | A498 > 100 µM | SK-MEL-2 > 100 µM | RXF 393 > 100 µM | RPMI-8226 > 100 µM | PC-3 > 100 µM | MDA-MB-231 > 100 µM | OVCAR-8 93.1 µM | OVCAR-3 36 µM | BT-549 > 100 µM | ACHN > 100 µM | Malme-3M > 100 µM

CC(C)=CCC[C@](C)(O)[C@H]1CC[C@]2(C)[C@@H]1[C@H](O)C[C@@H]1[C@@]3(C)CC[C@H](O[C@@H]4O[C@H](CO)[C@@H](O)[C@H](O)[C@H]4O)C(C)(C)[C@@H]3CC[C@]12C [GINSENOSIDE RH2]
inactive: EKVX 22.7 µM | K562 19.8 µM | UACC-257 20.9 µM | HCT-116 26.2 µM | UO-31 17.4 µM | MDA-MB-435 18.2 µM | SK-MEL-28 19.9 µM | U-251 17.7 µM | HOP-62 32.6 µM | A498 19.8 µM | SK-MEL-2 15.9 µM | RXF 393 17 µM | RPMI-8226 19.1 µM | PC-3 17.6 µM | MDA-MB-231 18.2 µM | OVCAR-8 17.9 µM | OVCAR-3 17.9 µM | BT-549 18 µM | ACHN 17.8 µM | Malme-3M 18.4 µM

Nc1nc(N)c2ncn(-c3ccc(Br)cc3)c2n1
inactive: EKVX 5.45 µM | K562 11 µM | UACC-257 > 100 µM | HCT-116 25.5 µM | UO-31 13.5 µM | MDA-MB-435 39.2 µM | SK-MEL-28 > 43.3 µM | U-251 24.9 µM | HOP-62 23.6 µM | A498 15.6 µM | SK-MEL-2 14.4 µM | RXF 393 14.2 µM | RPMI-8226 11.4 µM | PC-3 23 µM | MDA-MB-231 23.8 µM | OVCAR-8 14.6 µM | OVCAR-3 16.2 µM | BT-549 97.7 µM | ACHN 13.3 µM | Malme-3M 10.6 µM

CC1(C)C2CC3C(C)(C2)C31c1cc(Cl)ccc1N (stereo not given)
inactive: EKVX 13.7 µM | K562 10.5 µM | UACC-257 13.4 µM | HCT-116 2.23 µM | UO-31 13.9 µM | MDA-MB-435 12.6 µM | SK-MEL-28 17.3 µM | U-251 15.2 µM | HOP-62 15.3 µM | A498 17.7 µM | SK-MEL-2 15 µM | RXF 393 10.3 µM | RPMI-8226 13 µM | PC-3 13.8 µM | MDA-MB-231 16.2 µM | OVCAR-8 15.1 µM | OVCAR-3 16.7 µM | BT-549 15.5 µM | ACHN 15.6 µM | Malme-3M 7.53 µM

CC(C)(C)c1ccc(O)c(Br)c1
inactive: EKVX > 100 µM | K562 > 100 µM | UACC-257 26.2 µM | HCT-116 > 100 µM | UO-31 > 100 µM | MDA-MB-435 > 100 µM | SK-MEL-28 > 100 µM | U-251 > 100 µM | HOP-62 > 100 µM | A498 > 100 µM | SK-MEL-2 > 100 µM | RXF 393 34.1 µM | RPMI-8226 > 100 µM | PC-3 > 100 µM | MDA-MB-231 > 100 µM | OVCAR-8 > 100 µM | OVCAR-3 > 100 µM | BT-549 > 100 µM | ACHN > 100 µM | Malme-3M > 100 µM
